In patent publication US5955440A, “Macrolide LHRH antagonists” (Abbott Laboratories, priority 1998, dated 1999):

Target: T1, LHRH rat pituitary receptor (Rattus norvegicus, UniProt P30969)
T1 construct: from tissue; host or cells: rat pituitary
T1 sequence (P30969 1-327): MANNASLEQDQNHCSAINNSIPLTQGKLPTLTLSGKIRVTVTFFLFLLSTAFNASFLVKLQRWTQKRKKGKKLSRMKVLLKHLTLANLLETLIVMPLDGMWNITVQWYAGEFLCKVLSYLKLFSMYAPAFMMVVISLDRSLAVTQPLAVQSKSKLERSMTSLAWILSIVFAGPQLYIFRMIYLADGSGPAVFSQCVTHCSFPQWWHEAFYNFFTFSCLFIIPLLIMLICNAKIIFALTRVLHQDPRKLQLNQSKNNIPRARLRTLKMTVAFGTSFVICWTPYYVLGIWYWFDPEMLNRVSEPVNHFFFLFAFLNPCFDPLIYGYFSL
Assay: LHRH rat pituitary receptor binding (pKI)
Conditions: negative logarithm of the equilibrium dissociation constants, Table 1
Experimental: Representative compounds of the present invention were evaluated in in vitro tests for LHRH rat pituitary receptor binding (pKI) and for LH inhibition from rat pituitary cells for antagonist potency (pA2). The tests employed the methods detailed in F. Haviv, et al. J. Med. Chem., 32: 2340-2344 (1989). The receptor binding affinity (pKI) is the negative logarithm of the equilibrium dissociation constants.

receptor binding affinity (pKI) | Compound
8.17 | CC[C@H]1OC(=O)[C@H](C)[C@@H](O[C@H]2C[C@@](C)(OC)[C@@H](O)[C@H](C)O2)[C@H](C)[C@@H](O[C@@H]2O[C@H](C)C[C@H](N(C)CCC3CC3)[C@H]2O)[C@](C)(OC)C[C@@H](C)C(=O)[C@H](C)[C@H]2N(CCc3ccc(Cl)cc3)C(=O)O[C@]12C [Example 38, 3'-N-Desmethyl-3'-N-[2-(cyclopropyl)-ethyl]-11-deoxy-11-[carboxy-(4-chlorophenethylamino)]-6-O-methyl-erythromycin A 11,12-(cyclic carbamate)]
8.11 | 3'-N-Desmethyl-3'-N-[3-(3-pyridyl)propyl]-11-deoxy-11-[carboxy-(3,4-dichlorophenethylamino)]-6-O-methyl-erythromycin A 11,12-(cyclic carbamate) [Example 79]

Same assay, conditions: negative logarithm of the equilibrium dissociation constants, Table 1, read-out: receptor binding affinity (pKI) (converted)

Compound | Ki
CCC(CC)N(C)[C@H]1C[C@@H](C)O[C@@H](O[C@@H]2[C@@H](C)[C@H](O[C@H]3C[C@@](C)(OC)[C@@H](O)[C@H](C)O3)[C@@H](C)C(=O)O[C@H](CC)[C@@]3(C)OC(=O)N(CCc4ccc(Cl)cc4)[C@@H]3[C@@H](C)C(=O)[C@H](C)C[C@@]2(C)OC)[C@@H]1O [Example 36, 3'-N-Desmethyl-3'-N-(3-pentyl)-11-deoxy-11-[carboxy-(4-chlorophenethylamino)]-6-O-methyl-erythromycin A 11,12-(cyclic carbamate)] | 9.12 nM
CCCN(C)[C@H]1C[C@@H](C)O[C@@H](O[C@@H]2[C@@H](C)[C@H](O[C@H]3C[C@@](C)(OC)[C@@H](O)[C@H](C)O3)[C@@H](C)C(=O)O[C@H](CC)[C@@]3(C)OC(=O)N(CCc4ccc(F)c(Cl)c4)[C@@H]3[C@@H](C)C(=O)[C@H](C)C[C@@]2(C)OC)[C@@H]1O [Example 44, 3'-N-Desmethyl-3'-N-propyl-11-deoxy-11-[carboxy-(3-chloro-4-fluorophenethylamino)]-6-O-methyl-erythromycin A 11,12-(cyclic carbamate)] | 1.45 nM
CC[C@H]1OC(=O)[C@H](C)[C@@H](O[C@H]2C[C@@](C)(OC)[C@@H](O)[C@H](C)O2)[C@H](C)[C@@H](O[C@@H]2O[C@H](C)C[C@H](N(C)CCCC(F)(F)F)[C@H]2O)[C@](C)(OC)C[C@@H](C)C(=O)[C@H](C)[C@H]2N(CCc3ccc(F)c(Cl)c3)C(=O)O[C@]12C [Example 51, 3'-N-Desmethyl-3'-N-(4,4,4-trifluorobutyl)-11-deoxy-11-[carboxy-(3-chloro-4-fluorophenethylamino)]-6-O-methyl-erythromycin A 11,12-(cyclic carbamate)] | 6.31 nM
CC[C@H]1OC(=O)[C@H](C)[C@@H](O[C@H]2C[C@@](C)(OC)[C@@H](O)[C@H](C)O2)[C@H](C)[C@@H](O[C@@H]2O[C@H](C)C[C@H](N(C)C3CCCCC3)[C@H]2O)[C@](C)(OC)C[C@@H](C)C(=O)[C@H](C)[C@H]2N(CCc3ccc(Cl)c(Cl)c3)C(=O)O[C@]12C [Example 5, 3'-N-Desmethyl-3'-N-cyclohexyl-11-deoxy-11-[carboxy-(3,4-dichlorophenethylamino)]-6-O-methyl-erythromycin A 11,12-(cyclic carbamate)] | 3.63 nM
CC[C@H]1OC(=O)[C@H](C)[C@@H](O[C@H]2C[C@@](C)(OC)[C@@H](O)[C@H](C)O2)[C@H](C)[C@@H](O[C@@H]2O[C@H](C)C[C@H](N(C)C3CCCC3)[C@H]2O)[C@](C)(OC)C[C@@H](C)C(=O)[C@H](C)[C@H]2N(CCc3ccc4c(c3)OCO4)C(=O)O[C@]12C [Example 15, 3'-N-Desmethyl-3'-N-cyclopentyl-11-deoxy-11[carboxy-(3,4-dioxolanophenethylamino)]-6-O-methyl-erythromycin A 11,12-(cyclic carbamate)] | 6.31 nM

Next, values leading:

Ki | Compound
1.78 nM | CC[C@H]1OC(=O)[C@H](C)[C@@H](O[C@H]2C[C@@](C)(OC)[C@@H](O)[C@H](C)O2)[C@H](C)[C@@H](O[C@@H]2O[C@H](C)C[C@H](N(C)CCC[S+](C)[O-])[C@H]2O)[C@](C)(OC)C[C@@H](C)C(=O)[C@H](C)[C@H]2N(CCc3ccc(Cl)c(Cl)c3)C(=O)O[C@]12C (some centres unmarked) [Example 56, 3'-N-Desmethyl-3'-N-[3-(methylsulfoxy)propyl]-11-deoxy-11-[carboxy-(3,4-dichlorophenethylamino)]-6-O-methyl-erythromycin A 11,12-(cyclic carbamate)]
7.24 nM | CC[C@H]1OC(=O)[C@H](C)[C@@H](O[C@H]2C[C@@](C)(OC)[C@@H](O)[C@H](C)O2)[C@H](C)[C@@H](O[C@@H]2O[C@H](C)C[C@H](N(C)CC3CC3)[C@H]2O)[C@](C)(OC)C[C@@H](C)C(=O)[C@H](C)[C@H]2N(CCc3ccc(Cl)c(Cl)c3)C(=O)O[C@]12C [Example 55, 3'-N-Desmethyl-3'-N-cyclopropylmethyl-11-deoxy-11-[carboxy-(3,4-dichlorophenethylamino)]-6-O-methyl-erythromycin A 11,12-(cyclic carbamate)]
7.76 nM | CC[C@H]1OC(=O)[C@H](C)[C@@H](O[C@H]2C[C@@](C)(OC)[C@@H](O)[C@H](C)O2)[C@H](C)[C@@H](O[C@@H]2O[C@H](C)C[C@H](N(C)Cc3ccc(-c4ccc(Cl)cc4)o3)[C@H]2O)[C@](C)(OC)C[C@@H](C)C(=O)[C@H](C)[C@H]2N(CCc3ccc(Cl)c(Cl)c3)C(=O)O[C@]12C [Example 67, 3'-N-Desmethyl-3'-N-[5-(4-chlorophenyl)-2-furylmethyl]-11-deoxy-11-[carboxy-(3,4-dichlorophenethylamino)]-6-O-methyl-erythromycin A 11,12-(cyclic carbamate)]
7.41 nM | CC[C@H]1OC(=O)[C@H](C)[C@@H](O[C@H]2C[C@@](C)(OC)[C@@H](O)[C@H](C)O2)[C@H](C)[C@@H](O[C@@H]2O[C@H](C)C[C@H](N(C)Cc3ccccn3)[C@H]2O)[C@](C)(OC)C[C@@H](C)C(=O)[C@H](C)[C@H]2N(CCc3ccc(Cl)c(Cl)c3)C(=O)O[C@]12C [Example 65, 3'-N-Desmethyl-3'-N-(2-pyridyl)methyl-11-deoxy-11-[carboxy-(3,4-dichlorophenethylamino)]-6-O-methyl-erythromycin A 11,12-(cyclic carbamate)]
9.12 nM | CCNC(=S)N(C)[C@H]1C[C@@H](C)O[C@@H](O[C@@H]2[C@@H](C)[C@H](O[C@H]3C[C@@](C)(OC)[C@@H](O)[C@H](C)O3)[C@@H](C)C(=O)O[C@H](CC)[C@@]3(C)OC(=O)N(CCc4ccc(Cl)c(Cl)c4)[C@@H]3[C@@H](C)C(=O)[C@H](C)C[C@@]2(C)OC)[C@@H]1O [Example 57, 3'-N-Desmethyl-3'-N-ethylthiourea-11-deoxy-11-[carboxy-(3,4-dichlorophenethylamino)]-6-O-methyl-erythromycin A 11,12-(cyclic carbamate)]
3.98 nM | CC[C@H]1OC(=O)[C@H](C)[C@@H](O[C@H]2C[C@@](C)(OC)[C@@H](O)[C@H](C)O2)[C@H](C)[C@@H](O[C@@H]2O[C@H](C)C[C@H](N(C)CCCc3cccnc3)[C@H]2O)[C@](C)(OC)C[C@@H](C)C(=O)[C@H](C)[C@H]2N(CCc3ccc(F)c(Cl)c3)C(=O)O[C@]12C [Example 80, 3'-N-Desmethyl-3'-N-[3-(3-pyridyl)propyl]-11-deoxy-11-[carboxy-(3-chloro-4-fluorophenethylamino)]-6-O-methyl-erythromycin A 11,12-(cyclic carbamate)]
2.09 nM | CC[C@H]1OC(=O)[C@H](C)[C@@H](O[C@H]2C[C@@](C)(OC)[C@@H](O)[C@H](C)O2)[C@H](C)[C@@H](O[C@@H]2O[C@H](C)C[C@H](N(C)CCCc3ccc(C)cn3)[C@H]2O)[C@](C)(OC)C[C@@H](C)C(=O)[C@H](C)[C@H]2N(CCc3ccc(F)c(Cl)c3)C(=O)O[C@]12C [Example 88, 3'-N-Desmethyl-3'-N-[3-(5-methyl-2-pyridyl)propyl]-11-deoxy-11[carboxy-(3-chloro-4-fluorophenethylamino)]-6-O-methyl-erythromycin A 11,12-(cyclic carbamate)]
6.17 nM | CC[C@H]1OC(=O)[C@H](C)[C@@H](O[C@H]2C[C@@](C)(OC)[C@@H](O)[C@H](C)O2)[C@H](C)[C@@H](O[C@@H]2O[C@H](C)C[C@H](N(C)CC3CC(OC)OC3OC)[C@H]2O)[C@](C)(OC)C[C@@H](C)C(=O)[C@H](C)[C@H]2N(CCc3ccc(Cl)c(Cl)c3)C(=O)O[C@]12C (some centres unmarked) [Example 69, 3'-N-Desmethyl-3'-N-[2,5-dimethoxy-3-tetrahydrofurylmethyl]-11-deoxy-11-[carboxy-(3,4-dichlorophenethylamino)]-6-O-methyl-erythromycin A 11,12-(cycliccarbamate)]
1.38 nM | CC[C@H]1OC(=O)[C@H](C)[C@@H](O[C@H]2C[C@@](C)(OC)[C@@H](O)[C@H](C)O2)[C@H](C)[C@@H](O[C@@H]2O[C@H](C)C[C@H](N(C)Cc3ccc([N+](=O)[O-])s3)[C@H]2O)[C@](C)(OC)C[C@@H](C)C(=O)[C@H](C)[C@H]2N(CCc3ccc(Cl)c(Cl)c3)C(=O)O[C@]12C [Example 66, 3'-N-Desmethyl-3'-N-[(5-nitro-2-thienyl]methyl-11-deoxy-11-[carboxy-(3,4-dichlorophenethylamino)]-6-O-methyl-erythromycin A 11,12-(cyclic carbamate)]
9.55 nM | CC[C@H]1OC(=O)[C@H](C)[C@@H](O[C@H]2C[C@@](C)(OC)[C@@H](O)[C@H](C)O2)[C@H](C)[C@@H](O[C@@H]2O[C@H](C)C[C@H](N(C)Cc3ccc(O)cc3)[C@H]2O)[C@](C)(OC)C[C@@H](C)C(=O)[C@H](C)[C@H]2N(CCc3ccc(Cl)c(Cl)c3)C(=O)O[C@]12C [Example 91, 3'-N-Desmethyl-3'-N-(4-hydroxybenzyl)-11-deoxy-11-[carboxy-(3,4-dichlorophenethylamino)]-6-O-methyl-erythromycin A 11,12-(cyclic carbamate)]
